{
  "source": "paper PMC4468608",
  "about": "“A distinct p53 target gene set predicts for response to the selective p53–HDM2 inhibitor NVP-CGM097” (eLife, 2015)",
  "system": "cell lines from the Cancer Cell Line Encyclopedia (CCLE)",
  "assay": "High-throughput cell viability assay, CCLE cell line panel (n = 356)",
  "format": "cell-based, human",
  "conditions": "Homo sapiens",
  "method": "Cell lines were partitioned into sensitive and insensitive groups based on compound potency (IC50). […] All other cell lines were obtained from ATCC (American Type Culture Collection), DSMZ (Deutsche Sammlung von Mikroorganismen und Zellkulturen), and HSRRB (Health Science Research Resources Bank) and cultured in RPMI or Dulbecco's modified Eagle's medium plus 10% FBS (Invitrogen, Carlsbad, CA) at 37°C, 5% CO2.",
  "note": "pIC50: −log10 of the molar value. Read-outs that look alike come from different tables or passages of the source.",
  "data": [
    {"smiles": "COc1cc2c(cc1OC(C)C)[C@H](c1ccc(Cl)cc1)N(c1ccc(N(C)C[C@H]3CC[C@H](N4CCNC(=O)C4)CC3)cc1)C(=O)C2", "note": "[NVP-CFC218]", "values": [
      {"measurement": "pIC50", "setting": "PC-3, TP53 MUT", "result": "< 5.10"},
      {"measurement": "pIC50", "setting": "PC-14, PC-14, TP53 MUT", "result": "< 5.10"},
      {"measurement": "pIC50", "setting": "PE/CA-PJ34 (clone C12), TP53 MUT", "result": "< 5.10"},
      {"measurement": "pIC50", "setting": "PE/CA-PJ49, TP53 WT", "result": "< 5.10"},
      {"measurement": "pIC50", "setting": "PK-1, TP53 MUT", "result": "< 5.10"},
      {"measurement": "pIC50", "setting": "PK-45H, TP53 WT", "result": "< 5.10"},
      {"measurement": "pIC50", "setting": "PL-21, PL-21, TP53 MUT", "result": "< 5.10"},
      {"measurement": "pIC50", "setting": "PSN1, PSN1, TP53 MUT", "result": "< 5.10"},
      {"measurement": "pIC50", "setting": "PaTu 8902, PA-TU-8902, TP53 MUT", "result": "< 5.10"},
      {"measurement": "pIC50", "setting": "Panc 04.03, Panc 04.03, TP53 MUT", "result": "< 5.10"},
      {"measurement": "pIC50", "setting": "QGP-1, QGP-1, TP53 WT", "result": "< 5.10"},
      {"measurement": "pIC50", "setting": "RCM-1, RCM-1, TP53 MUT", "result": "< 5.10"},
      {"measurement": "pIC50", "setting": "RERF-GC-1B, TP53 MUT", "result": "< 5.10"},
      {"measurement": "pIC50", "setting": "RERF-LC-AI, TP53 WT", "result": "< 5.10"},
      {"measurement": "pIC50", "setting": "RERF-LC-MS, TP53 MUT", "result": "< 5.10"},
      {"measurement": "pIC50", "setting": "RKO, TP53 WT", "result": 5.19},
      {"measurement": "pIC50", "setting": "RPMI 8402, RPMI-8402, TP53 MUT", "result": "< 5.10"},
      {"measurement": "pIC50", "setting": "RT-112, RT-112, TP53 MUT", "result": "< 5.10"},
      {"measurement": "pIC50", "setting": "Raji, TP53 MUT", "result": "< 5.10"},
      {"measurement": "pIC50", "setting": "Reh, TP53 WT", "result": 5.58},
      {"measurement": "pIC50", "setting": "S-117, S-117, TP53 MUT", "result": "< 5.10"},
      {"measurement": "pIC50", "setting": "SBC-5, SBC-5, TP53 MUT", "result": "< 5.10"},
      {"measurement": "pIC50", "setting": "SCC-4, SCC-4, TP53 MUT", "result": "< 5.10"},
      {"measurement": "pIC50", "setting": "SCC-9, SCC-9, TP53 MUT", "result": "< 5.10"},
      {"measurement": "pIC50", "setting": "SCC-25, SCC-25, TP53 MUT", "result": "< 5.10"},
      {"measurement": "IC50", "setting": "SCaBER, read-out: NVP- CFC218 IC50 (µM), cell line SCaBER, urinary_tract, TP53 MUT", "result": "> 8", "unit": "µM"},
      {"measurement": "pIC50", "setting": "SF-295, SF-295, TP53 MUT", "result": "< 5.10"},
      {"measurement": "pIC50", "setting": "SH-10-TC, TP53 MUT", "result": "< 5.10"},
      {"measurement": "pIC50", "setting": "SHP77, SHP-77, TP53 MUT", "result": "< 5.10"},
      {"measurement": "pIC50", "setting": "SJRH30, SJRH30, TP53 MUT", "result": "< 5.10"},
      {"measurement": "pIC50", "setting": "SK-BR-3, SK-BR-3, TP53 MUT", "result": "< 5.10"},
      {"measurement": "IC50", "setting": "SK-HEP1, read-out: NVP- CFC218 IC50 (µM), cell line SK-HEP-1, liver, TP53 WT", "result": "> 8", "unit": "µM"},
      {"measurement": "pIC50", "setting": "SK-LMS-1, SK-LMS-1, TP53 MUT", "result": "< 5.10"},
      {"measurement": "pIC50", "setting": "SK-LU-1, SK-LU-1, TP53 MUT", "result": "< 5.10"},
      {"measurement": "IC50", "setting": "SK-MEL-5, read-out: NVP- CFC218 IC50 (µM), cell line SK-MEL-5, skin, TP53 WT", "result": "> 8", "unit": "µM"},
      {"measurement": "IC50", "setting": "SK-MEL-24, read-out: NVP- CFC218 IC50 (µM), cell line SK-MEL-24, skin, TP53 WT", "result": "> 8", "unit": "µM"},
      {"measurement": "pIC50", "setting": "SK-MEL-30, SK-MEL-30, TP53 MUT", "result": "< 5.10"},
      {"measurement": "pIC50", "setting": "SK-MES-1, SK-MES-1, TP53 MUT", "result": "< 5.10"},
      {"measurement": "pIC50", "setting": "SK-N-AS, TP53 WT", "result": "< 5.10"},
      {"measurement": "pIC50", "setting": "SK-N-FI, TP53 MUT", "result": "< 5.10"},
      {"measurement": "pIC50", "setting": "SK-OV-3, SK-OV-3, TP53 MUT", "result": "< 5.10"},
      {"measurement": "pIC50", "setting": "SNU-182, SNU-182, TP53 MUT", "result": "< 5.10"},
      {"measurement": "IC50", "setting": "SNU-423, read-out: NVP- CFC218 IC50 (µM), cell line SNU-423, liver, TP53 MUT", "result": "> 8", "unit": "µM"},
      {"measurement": "pIC50", "setting": "SNU-475, SNU-475, TP53 MUT", "result": "< 5.10"},
      {"measurement": "pIC50", "setting": "SU-DHL-4, SU-DHL-4, TP53 MUT", "result": "< 5.10"},
      {"measurement": "pIC50", "setting": "SU-DHL-8, SU-DHL-8, TP53 MUT", "result": "< 5.10"},
      {"measurement": "pIC50", "setting": "SUP-M2, SUP-M2, TP53 WT", "result": 6.00},
      {"measurement": "pIC50", "setting": "SW480, SW480, TP53 MUT", "result": "< 5.10"},
      {"measurement": "pIC50", "setting": "SW579, SW579, TP53 MUT", "result": "< 5.10"},
      {"measurement": "IC50", "setting": "SW780, read-out: NVP- CFC218 IC50 (µM), cell line SW 780, urinary_tract, TP53 WT", "result": "> 8", "unit": "µM"},
      {"measurement": "pIC50", "setting": "SW900, SW 900, TP53 MUT", "result": "< 5.10"},
      {"measurement": "pIC50", "setting": "SW1271, SW 1271, TP53 MUT", "result": "< 5.10"},
      {"measurement": "pIC50", "setting": "SW1353, SW 1353, TP53 MUT", "result": 5.31},
      {"measurement": "pIC50", "setting": "SW1417, SW1417, TP53 MUT", "result": "< 5.10"},
      {"measurement": "IC50", "setting": "SW1573, read-out: NVP- CFC218 IC50 (µM), cell line SW 1573, lung, TP53 WT", "result": "> 8", "unit": "µM"},
      {"measurement": "pIC50", "setting": "SW1783, SW 1783, TP53 MUT", "result": "< 5.10"},
      {"measurement": "pIC50", "setting": "SW1990, SW 1990, TP53 MUT", "result": "< 5.10"},
      {"measurement": "IC50", "setting": "SW-403, read-out: NVP- CFC218 IC50 (µM), cell line SW403, large_intestine, TP53 MUT", "result": "> 8", "unit": "µM"},
      {"measurement": "pIC50", "setting": "T98G, TP53 MUT", "result": "< 5.10"},
      {"measurement": "pIC50", "setting": "TE 617.T, TP53 WT", "result": 5.54},
      {"measurement": "pIC50", "setting": "TE-1, TP53 MUT", "result": "< 5.10"},
      {"measurement": "pIC50", "setting": "TE-5, TP53 MUT", "result": "< 5.10"},
      {"measurement": "IC50", "setting": "TE-11, read-out: NVP- CFC218 IC50 (µM), cell line TE-11, oesophagus, TP53 MUT", "result": "> 8", "unit": "µM"},
      {"measurement": "pIC50", "setting": "TOV21G, TOV-21G, TP53 WT", "result": 5.27},
      {"measurement": "pIC50", "setting": "TT2609-C02, TP53 MUT", "result": "< 5.10"},
      {"measurement": "pIC50", "setting": "U-87 MG, TP53 WT", "result": "< 5.10"},
      {"measurement": "pIC50", "setting": "U-937, U-937, TP53 MUT", "result": "< 5.10"},
      {"measurement": "IC50", "setting": "UMUC3, read-out: NVP- CFC218 IC50 (µM), cell line UM-UC-3, urinary_tract, TP53 MUT", "result": "> 8", "unit": "µM"},
      {"measurement": "pIC50", "setting": "VMRC-RCZ, TP53 WT", "result": "< 5.10"},
      {"measurement": "pIC50", "setting": "WM 266-4, WM-266-4, TP53 WT", "result": 5.84},
      {"measurement": "pIC50", "setting": "WM983B, WM-983B, TP53 MUT", "result": "< 5.10"},
      {"measurement": "pIC50", "setting": "WM-115, WM-115, TP53 WT", "result": 5.47},
      {"measurement": "pIC50", "setting": "WSUDLCL2, WSU-DLCL2, TP53 MUT", "result": "< 5.10"},
      {"measurement": "pIC50", "setting": "YKG-1, YKG1, TP53 MUT", "result": "< 5.10"},
      {"measurement": "IC50", "setting": "read-out: NVP- CFC218 IC50 (µM), cell line BICR 31, upper_aerodigestive_tract, TP53 MUT", "result": "> 8", "unit": "µM"},
      {"measurement": "IC50", "setting": "read-out: NVP- CFC218 IC50 (µM), cell line C3A, liver, TP53 WT", "result": "> 8", "unit": "µM"},
      {"measurement": "IC50", "setting": "read-out: NVP- CFC218 IC50 (µM), cell line C32, skin, TP53 WT", "result": "> 8", "unit": "µM"},
      {"measurement": "IC50", "setting": "read-out: NVP- CFC218 IC50 (µM), cell line CCK-81, large_intestine, TP53 MUT", "result": "> 8", "unit": "µM"},
      {"measurement": "IC50", "setting": "read-out: NVP- CFC218 IC50 (µM), cell line ES-2, ovary, TP53 MUT", "result": "> 8", "unit": "µM"},
      {"measurement": "IC50", "setting": "read-out: NVP- CFC218 IC50 (µM), cell line HEC-108, endometrium, TP53 MUT", "result": "> 8", "unit": "µM"},
      {"measurement": "IC50", "setting": "read-out: NVP- CFC218 IC50 (µM), cell line HEC-265, endometrium, TP53 WT", "result": "> 8", "unit": "µM"},
      {"measurement": "IC50", "setting": "read-out: NVP- CFC218 IC50 (µM), cell line Hs 618.T, lung, TP53 WT", "result": "> 8", "unit": "µM"},
      {"measurement": "IC50", "setting": "read-out: NVP- CFC218 IC50 (µM), cell line Hs 888.T, bone, TP53 WT", "result": "> 8", "unit": "µM"},
      {"measurement": "IC50", "setting": "read-out: NVP- CFC218 IC50 (µM), cell line Hs 944.T, skin, TP53 WT", "result": "> 8", "unit": "µM"},
      {"measurement": "IC50", "setting": "read-out: NVP- CFC218 IC50 (µM), cell line JHOS-2, ovary, TP53 MUT", "result": "> 8", "unit": "µM"}
    ]}
  ]
}
